Reference: patent publication US20230271938A1, “BENZIMIDAZOLES FOR USE IN THE TREATMENT OF CANCER AND INFLAMMATORY DISEASES” (Capella Therapeutics, Inc., priority 2015, published 2023)

How the values were obtained:
[1] = molecular target: T1, TEC (Homo sapiens, UniProt P42680); test: Inhibition of TEC kinase; type: binding; conditions: 1% DMSO
T1 sequence (P42680 1-631): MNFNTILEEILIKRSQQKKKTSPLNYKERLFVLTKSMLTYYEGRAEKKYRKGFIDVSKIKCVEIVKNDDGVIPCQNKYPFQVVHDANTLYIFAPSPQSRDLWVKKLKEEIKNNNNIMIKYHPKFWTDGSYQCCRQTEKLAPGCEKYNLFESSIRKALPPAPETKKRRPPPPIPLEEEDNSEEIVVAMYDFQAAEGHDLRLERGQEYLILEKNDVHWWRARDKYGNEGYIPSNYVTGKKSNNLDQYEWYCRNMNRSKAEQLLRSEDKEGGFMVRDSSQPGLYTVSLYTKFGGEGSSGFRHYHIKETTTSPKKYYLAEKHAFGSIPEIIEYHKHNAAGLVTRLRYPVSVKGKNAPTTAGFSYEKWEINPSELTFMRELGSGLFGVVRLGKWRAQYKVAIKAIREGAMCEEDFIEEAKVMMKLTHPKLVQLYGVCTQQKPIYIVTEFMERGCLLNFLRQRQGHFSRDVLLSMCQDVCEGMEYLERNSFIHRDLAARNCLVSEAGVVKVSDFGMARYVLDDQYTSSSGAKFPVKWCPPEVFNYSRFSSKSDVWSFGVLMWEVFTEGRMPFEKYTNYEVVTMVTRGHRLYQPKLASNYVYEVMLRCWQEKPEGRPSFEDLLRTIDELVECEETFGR
Protocol: Binding of an ALEXA FLUOR® conjugate or “tracer” to a kinase is detected by addition of a Eu-labeled anti-tag antibody. Binding of the tracer and antibody to a kinase results in a high degree of FRET, whereas displacement of the tracer with a kinase inhibitor results in a loss of FRET. An inhibitory activity of a compound is thus determined from the extent of the FRET signal loss. Inhibition of ITK and TEC kinases by a test compound is determined in the presence of 1% DMSO.
(§1) Inhibition of BMX, BTK, PIK3C-D, ITK, TEC, and TXK kinases by compound A2 was measured using one of the assays described in Examples 2A and 3A.

[2] = system: A431 human epidermoid carcinoma cells (wild-type ERBB1); test: Cell proliferation assay, A431; type: cell-based; conditions: A-431, 72 hrs
Protocol: The biological activity of a test compound was determined using cell proliferation assays. The activity against wild-type ERBB 1 was determined using A431 human epidermoid carcinoma cells (ATCC) and human epidermal keratinocytes, neonatal, or HEKn cells (ATCC).
A431 cells were grown in DMEM (Invitrogen) supplemented with 10% FBS (Lonza), 1% penicillin-streptomycin, and 2 mM glutamine (Invitrogen). HEKn cells were grown in EPILIFE® (Invitrogen) supplemented with HKGS (Invitrogen). HCC827 and H1975 were cultured in RPMI1640 supplemented with 10% FBS (Lonza), 1% penicillin-streptomycin, and 2 mM glutamine (Invitrogen). Cells were maintained and propagated at 37° C. and 5% CO2 in a humidified cell culture incubator. Aliquots of cells from early passages were preserved for liquid nitrogen storage. Frozen vials of cells were thawed at 37° C. water bath. Cells were spun to remove freezing medium. The newly revived frozen cells were adapted in culture for 10 days before used for compound testing. Cells used in the assay were less than 20 subculture passages or 3 months in culture.
The test compounds were dissolved in dimethylsulfoxide (DMSO) and stored at -20° C. before testing. […] The cells were placed in a culture incubator overnight. Next day, test compounds in DMSO were added to the cells and placed back in the culture incubator for 72 hrs. In the meantime, the cell numbers at time zero of the compound treatment (T0) was measured by ENERCOUNT® (Codex BioSolutions). At the end of the compound treatment, the cell numbers were again measured by EnerCount as T72 values. The untreated controls (Ctrl) were cell numbers recorded from the 0.1% DMSO treatment. The percent growth inhibition by the test compound was calculated by the formula: (1- (T72-T0)/(Ctrl-T0)) x 100.
The results are summarized in Tables 1 and 2, wherein A represents a value no greater than 500 nM, B represents a value greater than 500 nM but no greater than 1 µM, C represents a value greater than 1 µM but no greater than 5 µM, and D represents a value greater than 5 µM; and wherein A′ represents a ratio of greater than 10, B′ represents a ratio of no greater than 10 but no less than 5, C′ represents a ratio of no greater than 5 but no less than 2, and D′ represents a ratio of no greater than 2.

[3] = molecular target: T2, BMX (Homo sapiens, UniProt P51813); test: Inhibition of BMX kinase; type: biochemical; conditions: 1% DMSO
T2 sequence (P51813 1-675): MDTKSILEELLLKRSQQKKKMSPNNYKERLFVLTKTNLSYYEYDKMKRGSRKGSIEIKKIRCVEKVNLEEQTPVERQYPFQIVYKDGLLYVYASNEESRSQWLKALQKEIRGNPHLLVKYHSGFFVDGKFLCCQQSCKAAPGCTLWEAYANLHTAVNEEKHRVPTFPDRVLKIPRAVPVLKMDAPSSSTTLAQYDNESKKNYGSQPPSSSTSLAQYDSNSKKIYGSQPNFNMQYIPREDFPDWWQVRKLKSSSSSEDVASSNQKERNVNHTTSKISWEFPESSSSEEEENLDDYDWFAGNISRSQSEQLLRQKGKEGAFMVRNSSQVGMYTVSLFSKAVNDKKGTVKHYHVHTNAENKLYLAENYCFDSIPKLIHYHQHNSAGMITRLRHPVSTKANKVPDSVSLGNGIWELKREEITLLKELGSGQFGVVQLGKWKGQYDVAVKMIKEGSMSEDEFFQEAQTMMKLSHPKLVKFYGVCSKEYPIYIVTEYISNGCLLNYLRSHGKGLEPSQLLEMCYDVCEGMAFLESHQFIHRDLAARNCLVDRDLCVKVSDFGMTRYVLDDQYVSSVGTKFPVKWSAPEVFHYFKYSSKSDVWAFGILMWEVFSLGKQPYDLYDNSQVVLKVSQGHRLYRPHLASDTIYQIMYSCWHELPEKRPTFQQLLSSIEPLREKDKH
Source text: The Z′-LYTE® biochemical assay is a fluorescence-based, coupled-enzyme assay based on the differential sensitivity of phosphorylated and non-phosphorylated peptides to proteolytic cleavage. A peptide substrate for a kinase is labeled with two fluorophores, one at each end, to form a FRET pair.
In the primary reaction, the kinase transfers the gamma-phosphate of ATP to a single tyrosine, serine, or threonine residue in the synthetic FRET-peptide substrate. In the secondary reaction, a site-specific protease recognizes and cleaves non-phosphorylated FRET-peptides. Cleavage disrupts FRET between the donor and acceptor fluorophores on the FRET-peptide, whereas uncleaved, phosphorylated FRET-peptides maintain FRET. An inhibitory activity of a compound is thus determined from its effect on the cleavage of the synthetic FRET-peptide substrate.
Inhibition of BMX, BTK, ITK, and TXK kinases by a test compound is determined in 50 mM HEPES, pH 7.5, 0.01% BRIJ-35, 10 mM MgCl2, and 1 mM EGTA in the presence of 1% DMSO by volume.
as §1

IC50 [1]: ≤ 0.01 µM
GI50 [2]: 0.5 to 1 µM
IC50 [3]: ≤ 0.01 µM
Structure (SMILES): C=CC(=O)N1CCCC[C@@H](n2c(NC(=O)c3ccnc(C)c3)nc3cccc(OC4CCN(C(C)=O)CC4)c32)C1 [Compound A2, (R)-N-(7-((1-acetylpiperidin-4-yl)oxy)-1-(1-acryloylazepan-3-yl)-1H-benzo[d]imidazol-2-yl)-2-methylisonicotinamide]
Inhibition [1]: A (A represents a value no greater than 10 nM or no less than 90% inhibition)
Inhibition [3]: A (A represents a value no greater than 10 nM or no less than 90% inhibition)
